Results as given in US20250249051A1, “MICROBIOME COMPOSITION FOR IMPROVING MUSCLE STRENGTH USING HEAT-TREATED FERMENTED CULTURE COMPLEX OF LACTIPLANTIBACILLUS PLANTARUM KM2” (KOOKMINBIO, CORP., priority 2024, published 2025).
Marks after values point to notes of the source that are not given here.

Legend:
C57BL/6J mice [1] = experiment: Biochemical analysis of serum in dexamethasone-induced muscular atrophy mice; assay type: in vivo; conditions: oxymetholone 50 mg/kg oral 8 weeks, DEX mice
Procedure: (§1) 7-week-old male C57BL/6J mice purchased from OrientBio were used as experimental animals. The environment of an animal breeding room was controlled at temperature of 21±1° C. with relative humidity of 40˜60% and light/dark cycles of 12 hours/day, and feed and drinking water were allowed to be consumed freely. This test was approved by the Institutional Animal Care and Use Committee in Kookmin University (KMU-2023-05) and carried out in accordance with the standard operating instructions. […] Feed ingestion amount and body weight were measured once every two weeks.
After sacrificing the mice, blood was drawn from the heart and immediately centrifuged (3,000×g, 10 min, 4° C.) to separate the plasma. Creatine phosphokinase (CPK), lactate dehydrogenase (LDH), aspartate aminotransferase (AST), alanine aminotransferase (ALT), and blood urea nitrogen (BUN) were measured using a chemical analyzer (Fuji DRI-CHEM 3500i, Fuji Photo Film, Ltd., Tokyo, Japan).

C57BL/6J mice [2] = experiment: Body weight and body composition (DEXA) in dexamethasone-induced muscular atrophy mice; assay type: in vivo; conditions: week 7, oral; KLP-KM2 900 and 1800 mg/kg, OXM 50 mg/kg; vs DEX group
Procedure: as §1
Dual energy X-ray absorptiometry (DEXA; Medikors, Seongnam, Korea) was used at week 7 before the sacrifice of experimental animals to measure the body composition of mice, followed by analysis on the changes in muscle mass relative to the body weight.

intestinal microflora = experiment: Intestinal microflora analysis in animal model (shotgun metagenome sequencing); assay type: in vivo, mice; conditions: genus level, compared to the DEX group
Procedure: as §1
To identify the effect of the sample on the intestinal microbiota of the animal model, the appendix was removed after animal sacrifice, DNA was extracted, and analysis was performed using Shotgun metagenome sequencing. The extracted DNA was subjected to adapter ligation using the Truseq Nano DNA prep kit for sequencing, and then 8 cycles of PCR were performed to create a library. […] Using Trimmomatic v0.39 (AM Bolger, M Lohse, B Usadel, 2014) for raw reads, removal of low-quality reads and adapters was followed, and in order to eliminate PhiX sequences added during sequencing, trimmed reads were aligned to the PhiX reference genome (NC_001422.1) using BWA v0.7.17-r1188 (Li, Heng, 2013) and then removed with SAMtools v1.15.1 (Li, Heng, et al., 2009). […]

In the case of `C[C@]12C/C(=C/O)C(=O)C[C@@H]1CC[C@@H]1[C@@H]2CC[C@@]2(C)[C@H]1CC[C@]2(C)O` [OXM, oxymetholone], the ALT (C57BL/6J mice [1]) is reported as 43.75 ± 7.96 ^a U/L, the AST (C57BL/6J mice [1]) is reported as 58.88 ± 11.73 ^a U/L and the BUN (C57BL/6J mice [1]) is reported as 24.74 ± 1.47 ^a mg/dL. The CPK (C57BL/6J mice [1]) was 99.13 ± 35.13 ^b U/L, the LDH (C57BL/6J mice [1]) was 211.38 ± 46.99 ^b U/L and the “muscle mass to the total body weight (DEXA)” value (C57BL/6J mice [2]) was “relatively significant increase compared to the DEX group”. The “proportion of Akkermansia” value (intestinal microflora) was “significantly reduced”.
